Experimental data taken from patent US20160108005A1, “TREATMENT OR PREVENTION OF DEPRESSION USING MENTHOL AND/OR ICILIN” (NESTEC S.A., priority 2013, published 2016).

How the values were obtained:
Assay type in all cases: cell-based
[1] = tested on: Lateral Amygdala glutamatergic neuron (in a mouse brain slice); assay: whole cell, current clamp recordings, 2.5 s square pulse at high depolarization (approximately −30 mV); details: for inactivation of the sodium fast channels / neuronal firing: square pulse of 2.5 s at high depolarization of membrane potential (approximately −30 mV), relative to control, FIG. 2
Description: (§1) A mouse brain slice was used to study the effects of Menthol, Linalool (another transient receptor potential M8 (TRPM8) channel agonist) and Icilin. The amygdaloid complex is located within the medial temporal lobe in neocortex and amygdala. The lateral and basolateral nuclei of the amygdaloid complex receive sensory information from cortical and thalamic structures, process the information, and then transmit the information, either directly or through the basal nucleus, to the central nucleus. For experimental analysis of neuronal activity, synaptic responses from the basolateral complex can be evoked electrically using electrodes, and the action potentials can be measured. […] A square pulse of 2.5 s was applied at high depolarization of membrane potential (approximately −30 mV).

[2] = tested on: Lateral Amygdala glutamatergic neuron (in a mouse brain slice); assay: whole cell, current clamp recordings with increasing concentration of gabazine (spontaneous action potential bursts); details: Menthol 250 μM applied extracellularly 10 minutes previous to and during increasing concentrations of gabazine; FIG. 5 compared to FIG. 3
Description: as §1, with “As shown, neurons spontaneously present action” for “A square pulse of 2.5 s was applied at high depolarization of membrane”, “bursts due to massive presynaptic discharges.” for “(approximately −30 mV).”

neocortex = assay: action potential threshold in mouse brain slice recordings
Description: A mouse brain slice was used to study the effects of Menthol, Linalool (another transient receptor potential M8 (TRPM8) channel agonist) and Icilin. The amygdaloid complex is located within the medial temporal lobe in neocortex and amygdala. The lateral and basolateral nuclei of the amygdaloid complex receive sensory information from cortical and thalamic structures, process the information, and then transmit the information, either directly or through the basal nucleus, to the central nucleus. For experimental analysis of neuronal activity, synaptic responses from the basolateral complex can be evoked electrically using electrodes, and the action potentials can be measured.

CC1CCC(C(C)C)C(O)C1 (stereo not shown) [Menthol]
action potentials at higher stimulation levels [1]: abort action potentials at higher stimulation levels
inactivation of the sodium fast channels / neuronal firing [1]: inactivation of the sodium fast channels happens sooner relative to control
spontaneous action potential bursts [2]: complete absence or a strongly decreased presence of spontaneous bursts
amount of current required to trigger an action potential (neocortex): increase the amount of current required to trigger an action potential
threshold to trigger an action potential (neocortex): increase the threshold to trigger an action potential

O=C1NC(c2cccc([N+](=O)[O-])c2)=CCN1c1ccccc1O [Icilin]
action potentials at higher stimulation levels [1]: abort action potentials at higher stimulation levels
inactivation of the sodium fast channels / neuronal firing [1]: inactivation of the sodium fast channels happens sooner relative to control
amount of current required to trigger an action potential (neocortex): increase the amount of current required to trigger an action potential
threshold to trigger an action potential (neocortex): increase the threshold to trigger an action potential

C=CC(C)(O)CCC=C(C)C (stereo not shown) [Linalool]
inactivation of the sodium fast channels / neuronal firing [1]: inactivation of the sodium fast channels happens sooner relative to control
